Experimental findings from patent US12240840B2, “Amide-substituted heterocyclic compounds for the treatment of conditions related to the modulation of IL-12, IL-23 and/or IFN-alpha” (BRISTOL-MYERS SQUIBB COMPANY, priority 2018, dated 2025) are described below.

This test deals with IFNα-induced pSTAT5 (pY694) in CD3 positive cells of human whole blood. The experiment in a line: IFNα-Induced STAT Phosphorylation in Human Whole Blood. The test is classed as cell-based. The following applies: Homo sapiens, 1 h compound incubation, 1000 U/mL recombinant human IFNα A/D for 15 min, pSTAT5 in CD3 positive population, read-out: Human WB IFNα-Induced Stat Phosph. (IC50). An outline of the steps: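 Read-out is median fluorescence intensity of pSTAT5 (pY694) in the CD3-positive gate, by flow cytometry after fix/lyse and permeabilization. Before that, whole human blood anticoagulated with EDTA or ACD-A received compound for an hour and 1000 U/mL IFNα A/D for 15 min.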

What is called IC50 is the midpoint of a concentration-inhibition curve.

Structures are written as SMILES. Where only a bound is given, the exact number is not on record here.

For `[2H]C([2H])([2H])NC(=O)c1nnc(NC(=O)C2CC2)cc1Nc1cccc(-c2nc(C)c(C(=O)N(C)C)s2)c1OC` [Example 367], the IC50 came to 60 nM.
Next, `[2H]C([2H])([2H])NC(=O)c1nnc(NC(=O)C2CC2)cc1Nc1cccc(-c2cc(C(=O)NCC3CCN(C)C3)n(C)n2)c1OC` (centres unmarked) [Example 528]: 840 nM; `[2H]C([2H])([2H])NC(=O)c1nnc(NC(=O)C2CC2)cc1Nc1cc(F)cc(-c2cc(C(=O)N3CCC[C@H]3CO)n(C)n2)c1OC` [Example 507]: 110 nM.
For `[2H]C([2H])([2H])NC(=O)c1cnc(NC(=O)C2CC2)cc1Nc1cccc(-c2cnn(CCNC(=O)COC)n2)c1OC` [Example 441], the IC50 was found to be 290 nM.
In the case of `COc1c(Nc2cc(NC(=O)C3CC3)nnc2C(N)=O)cccc1-c1noc(CN(C)S(=O)(=O)C(C)C)n1` [Example 58] it was 11 nM; in that of `COc1c(Nc2cc(NC(=O)C3CC3)nnc2C(N)=O)cccc1-c1noc(CN2CCCS2(=O)=O)n1` [Example 68], 23 nM.
On to `[2H]C([2H])([2H])NC(=O)c1nnc(NC(=O)C2CC2)cc1Nc1cccc(-c2nc([C@H](N)CO)no2)c1OC` [Example 221], for which the concentration for half-maximal inhibition (IC50) came to 160 nM.
Next, `[2H]C([2H])([2H])NC(=O)c1nnc(NC(=O)C2CC2)cc1Nc1cccc(-c2ncc(CC(=O)NCCOC)s2)c1OC` [Example 255]: 620 nM; `[2H]C([2H])([2H])NC(=O)c1nnc(NC(=O)C2CC2)cc1Nc1cccc(-c2noc(C(CC)C(=O)NCCOC)n2)c1OC` (centres unmarked) [Example 41]: 60 nM.
Consider `[2H]C([2H])([2H])NC(=O)c1nnc(Nc2cc(C)n(C)n2)cc1Nc1cccc(-c2ncc(C(=O)N3CCS(=O)(=O)CC3)s2)c1OC` [Example 382], for which the IC50 came to 100 nM.
Regarding `[2H]C([2H])([2H])NC(=O)c1nnc(NC(=O)C2CC2)cc1Nc1cccc(-c2nc(CN3CCN(C(=O)C=C)CC3)no2)c1OC` [Example 129], the IC50 was 260 nM.
Next, `COc1c(Nc2cc(NC(=O)C3CC3)nnc2C(N)=O)cccc1-c1noc(CNS(=O)(=O)c2ccccc2)n1` [Example 13]: 24 nM.
`[2H]C([2H])([2H])NC(=O)c1nnc(NC(=O)C2CC2)cc1Nc1cccc(-c2noc(CN(C)S(C)(=O)=O)n2)c1OC` [Example 65]: the IC50 came out at 16 nM.
Turning to `[2H]C([2H])([2H])NC(=O)c1cnc(NC(=O)C2CC2)cc1Nc1cccc(-c2cc(C(=O)N(C)C)n(C)n2)c1OC` [Example 486], the 50% inhibitory concentration (IC50) was 60 nM.
With `COc1c(Nc2cc(NC(=O)C3CC3)nnc2C(N)=O)cccc1-c1noc(CN(C)S(=O)(=O)C2CC2)n1` [Example 9], the IC50 amounted to 16 nM.
In the case of `[2H]C([2H])([2H])NC(=O)c1nnc(NC(=O)C2CC2)cc1Nc1cccc(-c2cc(C(=O)N3CCCC3)n(C)n2)c1OC` [Example 482] it was 150 nM; in that of `[2H]C([2H])([2H])NC(=O)c1cnc(NC(=O)C2CC2)cc1Nc1cccc(-c2cnn(CCN)n2)c1OC` [Example 442], 80 nM.
In the case of `[2H]C([2H])([2H])NC(=O)c1cnc(NC(=O)C2CC2)cc1Nc1cccc(-c2noc(COC(C)C)n2)c1OC` [Example 89] it was 30 nM; in that of `[2H]C([2H])([2H])NC(=O)c1nnc(NC(=O)C2CC2)cc1Nc1cc(F)cc(-c2cc(C(=O)N3CCOCC3)n(C)n2)c1OC` [Example 485], 130 nM.
For the compound `[2H]C([2H])([2H])NC(=O)c1nnc(NC(=O)C2CC2)cc1Nc1cccc(-c2cn(CCN3CCOCC3)nn2)c1OC` [Example 422, 6-(cyclopropanecarboxamido)-4-((2-methoxy-3-(1-(2-morpholinoethyl)-1H-1,2,3-triazol-4-yl)phenyl)amino)-N-(methyl-d3)pyridazine-3-carboxamide], the IC50 is 590 nM.
Take `[2H]C([2H])([2H])NC(=O)c1nnc(NC(=O)C2CC2)cc1Nc1cccc(-c2noc(CNC(=O)OC)n2)c1OC` [Example 30]: the IC50 amounted to 1380 nM.
Consider `COCC(=O)NCCn1ncc(-c2cccc(Nc3cc(NC(=O)C4CC4)ncc3C(N)=O)c2OC)n1` [Example 445], for which the 50% inhibitory concentration (IC50) amounted to 150 nM.
As for `[2H]C([2H])([2H])NC(=O)c1cnc(NC(=O)C2CC2)cc1Nc1cc(F)cc(-c2csc(C(=O)NCCOC)n2)c1OC` [Example 574], the IC50 was 700 nM.
For the compound `[2H]C([2H])([2H])NC(=O)c1nnc(NC(=O)C2CC2)cc1Nc1cccc(-c2nc(CN3CCN(C(=O)COC)CC3)no2)c1OC` [Example 127], the IC50 turned out to be 260 nM.
Next, `[2H]C([2H])([2H])NC(=O)c1nnc(NC(=O)C2CC2)cc1Nc1cccc(-c2nc([C@@H](NC(=O)CC)[C@@H](C)O)no2)c1OC` [Example 190]: 2360 nM; `[2H]C([2H])([2H])NC(=O)c1nnc(NC(=O)C2CC2)cc1Nc1cccc(-c2noc(CCS(C)(=O)=O)n2)c1OC` [Example 78]: 70 nM; `[2H]C([2H])([2H])NC(=O)c1nnc(NC(=O)C2CC2)cc1Nc1cccc(-c2ncc(C(=O)NCCNC(=O)CC)s2)c1OC` [Example 240]: 180 nM.
With `[2H]C([2H])([2H])NC(=O)c1cnc(NC(=O)C2CC2)cc1Nc1cc(F)cc(-c2cnn(C)n2)c1OC` [Example 453], the IC50 worked out at 60 nM.
Take `[2H]C([2H])([2H])NC(=O)c1nnc(Nc2ccc(OC)nn2)cc1Nc1cccc(-c2ncc(CNC(=O)OC)s2)c1OC` [Example 391]: the IC50 is 820 nM.
In the case of `[2H]C([2H])([2H])NC(=O)c1nnc(NC(=O)C2CC2)cc1Nc1cccc(-c2noc(CN3CCCC3=O)n2)c1OC` [Example 79] it was 160 nM.
Next, `[2H]C([2H])([2H])NC(=O)c1nnc(NC(=O)C2CC2)cc1Nc1cccc(-c2cnn(CCNC(=O)OC(C)(C)C)n2)c1OC` [Example 431]: more than 10000 nM; `[2H]C([2H])([2H])NC(=O)c1nnc(NC(=O)C2CC2)cc1Nc1cccc(-c2nc(C)c(C(=O)N3CCNC(=O)C3)s2)c1OC` [Example 363]: 240 nM; `[2H]C([2H])([2H])NC(=O)c1nnc(NC(=O)C2CC2)cc1Nc1cccc(-c2cnn(CCNC(=O)CO)c2)c1OC` [Example 558]: 1300 nM.
In the case of `[2H]C([2H])([2H])NC(=O)c1nnc(NC(=O)C2CC2)cc1Nc1cccc(-c2nc(CN3CCN(C(=O)c4ccccn4)CC3)no2)c1OC` [Example 130] it was 490 nM; in that of `[2H]C([2H])([2H])NC(=O)c1nnc(NC(=O)C2CC2)cc1Nc1cccc(-c2ncc(C(=O)N3CCC(CCCO)CC3)s2)c1OC` [Example 353], 170 nM.
With `[2H]C([2H])([2H])NC(=O)c1nnc(NC(=O)C2CC2)cc1Nc1cccc(-c2cnc(C(=O)N(C)C)s2)c1OC` [Example 239, 5-(3-((6-(cyclopropanecarboxamido)-3-((methyl-d3)carbamoyl)pyridazin-4-yl)amino)-2-methoxyphenyl)-N,N-dimethylthiazole-2-carboxamide], the IC50 amounted to 50 nM.
As to `[2H]C([2H])([2H])NC(=O)c1nnc(Nc2ccc(C)nn2)cc1Nc1cccc(-c2ccn(CCNC(=O)COC)n2)c1OC` [Example 542], the IC50 was 890 nM.
Next, `[2H]C([2H])([2H])NC(=O)c1nnc(NC(=O)C2CC2)cc1Nc1cccc(-c2nc(C)c(C(=O)NCC)s2)c1OC` [Example 360]: 270 nM; `[2H]C([2H])([2H])NC(=O)c1nnc(NC(=O)C2CC2)cc1Nc1cccc(-c2cc(C)nn2CCN)c1OC` [Example 463]: 800 nM; `COc1c(Nc2cc(NC(=O)C3CC3)nnc2C(N)=O)cccc1-c1noc(CN(C)C)n1` [Example 63]: 30 nM.
Take `COc1c(Nc2cc(NC(=O)C3CC3)nnc2C(N)=O)cccc1-c1noc([C@@H]2[C@H](O)CCN2S(C)(=O)=O)n1` [Example 66]: the IC50 came out at 30 nM.
Next, `[2H]C([2H])([2H])NC(=O)c1nnc(NC(=O)C2CC2)cc1Nc1cccc(-c2nc([C@H](NC(=O)COC)[C@H](C)O)no2)c1OC` [Example 205]: 850 nM; `COc1c(Nc2cc(NC(=O)C3CC3)nnc2C(N)=O)cccc1-c1ncc(CN2CCOCC2)s1` [Example 401]: 180 nM.
Next, `[2H]C([2H])([2H])NC(=O)c1nnc(NC(=O)C2CC2)cc1Nc1cccc(-c2cnn(CCNC(=O)CC#N)n2)c1OC` [Example 435]: 260 nM.
Take `COC(=O)N1CCN(Cc2nc(-c3cccc(Nc4cc(NC(=O)C5CC5)nnc4C(N)=O)c3OC)no2)CC1` [Example 39]: the IC50 stood at 23 nM.
`[2H]C([2H])([2H])NC(=O)c1cnc(Nc2cc(C(C)(C)O)ccn2)cc1Nc1cc(F)cc(-c2cnn(C)n2)c1OC` [Example 454]: the IC50 came out at 190 nM.
In the case of `[2H]C([2H])([2H])NC(=O)c1nnc(NC(=O)C2CC2)cc1Nc1cccc(-c2ncc(CNC(C)=O)s2)c1OC` [Example 261] it was 680 nM; in that of `[2H]C([2H])([2H])NC(=O)c1nnc(NC(=O)C2CC2)cc1Nc1cccc(-c2nc([C@H](NC(=O)CC)[C@H](C)O)no2)c1OC` [Example 208], 1270 nM.
In the case of `[2H]C([2H])([2H])NC(=O)c1nnc(NC(=O)C2CC2)cc1Nc1cccc(-c2noc(CN3CCC(O)CC3)n2)c1OC` [Example 83] it was 110 nM; in that of `[2H]C([2H])([2H])NC(=O)c1nnc(NC(=O)C2CC2)cc1Nc1cccc(-c2cc(C(=O)NCCC3CCCN3C)n(C)n2)c1OC` (centres unmarked) [Example 533], 530 nM.
In the case of `[2H]C([2H])([2H])NC(=O)c1nnc(NC(=O)C2CC2)cc1Nc1cccc(-c2cnn(CCNC(=O)COC)c2)c1OC` [Example 562] it was 650 nM.
As for `[2H]C([2H])([2H])NC(=O)c1nnc(NC(=O)C2CC2)cc1Nc1cccc(-c2ncc(C(=O)N3CCc4ccccc4C3)s2)c1OC` [Example 298], the IC50 is more than 10000 nM.
Turning to `[2H]C([2H])([2H])NC(=O)c1nnc(NC(=O)C2CC2)cc1Nc1cccc(-c2noc(C(C)(C)C(=O)N3CCOCC3)n2)c1OC` [Example 27], the IC50 stood at 2010 nM.
